According to BindingDB's records for doi:10.1111/cbdd.12243 (Shandong Institute of Pharmaceutical Industry, 2014):
pIC50: −log10 of the molar value.

Legend:
Assay in all cases: Z-LYTE biochemical assay
Conditions in all cases: 25 °C
[1] = molecular target: Vascular endothelial growth factor receptor 2 (Homo sapiens, UniProt P35968)
Description: (§1) The reaction was stopped by the addition of 5 µL stop reagent.

[2] = molecular target: Tyrosine-protein kinase ABL1 (Homo sapiens, UniProt P00519)
Sequence of Tyrosine-protein kinase ABL1 (P00519 whole entry): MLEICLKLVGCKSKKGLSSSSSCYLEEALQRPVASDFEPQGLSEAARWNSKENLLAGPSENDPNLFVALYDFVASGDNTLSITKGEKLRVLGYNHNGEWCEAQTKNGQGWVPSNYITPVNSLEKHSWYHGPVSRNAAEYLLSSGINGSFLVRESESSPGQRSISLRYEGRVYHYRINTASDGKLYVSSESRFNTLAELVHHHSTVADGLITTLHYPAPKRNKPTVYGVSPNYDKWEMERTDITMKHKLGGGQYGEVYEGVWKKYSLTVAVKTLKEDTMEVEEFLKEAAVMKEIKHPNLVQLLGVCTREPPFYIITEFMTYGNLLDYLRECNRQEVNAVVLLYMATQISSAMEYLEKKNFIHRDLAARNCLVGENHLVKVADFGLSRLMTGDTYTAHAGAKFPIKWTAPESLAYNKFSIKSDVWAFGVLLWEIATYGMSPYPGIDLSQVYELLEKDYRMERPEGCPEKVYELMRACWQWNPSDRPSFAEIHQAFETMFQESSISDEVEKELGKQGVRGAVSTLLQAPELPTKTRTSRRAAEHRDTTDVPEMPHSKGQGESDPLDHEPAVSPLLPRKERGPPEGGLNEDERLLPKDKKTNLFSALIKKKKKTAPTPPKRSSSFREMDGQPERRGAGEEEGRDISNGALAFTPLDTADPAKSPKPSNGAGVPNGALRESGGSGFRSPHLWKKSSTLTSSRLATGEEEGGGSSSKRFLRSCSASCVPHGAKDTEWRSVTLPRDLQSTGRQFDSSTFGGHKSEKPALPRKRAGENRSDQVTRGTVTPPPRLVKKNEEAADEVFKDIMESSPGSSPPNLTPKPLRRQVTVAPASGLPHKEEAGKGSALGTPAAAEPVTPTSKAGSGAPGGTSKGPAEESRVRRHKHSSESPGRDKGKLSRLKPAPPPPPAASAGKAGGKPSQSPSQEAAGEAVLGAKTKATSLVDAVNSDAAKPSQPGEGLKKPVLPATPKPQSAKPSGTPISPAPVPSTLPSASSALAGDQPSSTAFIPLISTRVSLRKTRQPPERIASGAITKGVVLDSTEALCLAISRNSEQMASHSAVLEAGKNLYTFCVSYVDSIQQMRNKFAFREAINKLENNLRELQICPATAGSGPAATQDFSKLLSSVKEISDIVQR
Description: as §1

[3] = molecular target: Receptor protein-tyrosine kinase (Homo sapiens, UniProt Q504U8)
Sequence of Receptor protein-tyrosine kinase (Q504U8 whole entry): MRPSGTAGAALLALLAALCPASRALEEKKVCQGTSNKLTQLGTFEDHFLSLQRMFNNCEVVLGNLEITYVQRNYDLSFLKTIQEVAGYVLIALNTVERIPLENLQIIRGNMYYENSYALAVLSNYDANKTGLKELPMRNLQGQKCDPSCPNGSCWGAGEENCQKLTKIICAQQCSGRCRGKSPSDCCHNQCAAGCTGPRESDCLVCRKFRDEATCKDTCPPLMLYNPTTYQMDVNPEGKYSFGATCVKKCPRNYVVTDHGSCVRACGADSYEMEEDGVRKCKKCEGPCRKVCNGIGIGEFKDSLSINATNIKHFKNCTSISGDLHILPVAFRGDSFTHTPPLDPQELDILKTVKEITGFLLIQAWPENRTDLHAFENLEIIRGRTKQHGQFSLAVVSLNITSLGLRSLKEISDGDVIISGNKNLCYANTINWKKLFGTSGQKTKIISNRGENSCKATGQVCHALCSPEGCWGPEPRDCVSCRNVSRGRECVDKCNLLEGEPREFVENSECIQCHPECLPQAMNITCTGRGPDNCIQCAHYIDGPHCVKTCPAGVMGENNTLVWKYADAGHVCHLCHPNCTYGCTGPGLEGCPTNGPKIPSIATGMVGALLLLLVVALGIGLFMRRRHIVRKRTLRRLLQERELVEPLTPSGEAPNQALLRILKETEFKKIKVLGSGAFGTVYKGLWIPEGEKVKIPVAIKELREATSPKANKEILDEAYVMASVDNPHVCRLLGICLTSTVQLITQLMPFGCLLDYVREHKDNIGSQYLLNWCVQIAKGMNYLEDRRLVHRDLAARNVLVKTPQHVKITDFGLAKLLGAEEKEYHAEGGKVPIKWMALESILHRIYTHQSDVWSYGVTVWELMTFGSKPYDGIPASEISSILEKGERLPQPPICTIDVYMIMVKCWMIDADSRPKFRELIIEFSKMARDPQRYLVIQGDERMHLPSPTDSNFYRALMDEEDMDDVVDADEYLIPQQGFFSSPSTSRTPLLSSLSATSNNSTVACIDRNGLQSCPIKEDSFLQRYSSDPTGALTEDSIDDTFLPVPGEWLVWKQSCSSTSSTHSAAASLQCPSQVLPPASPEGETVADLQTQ
Description: as §1

Sequence of Vascular endothelial growth factor receptor 2 (P35968 whole entry): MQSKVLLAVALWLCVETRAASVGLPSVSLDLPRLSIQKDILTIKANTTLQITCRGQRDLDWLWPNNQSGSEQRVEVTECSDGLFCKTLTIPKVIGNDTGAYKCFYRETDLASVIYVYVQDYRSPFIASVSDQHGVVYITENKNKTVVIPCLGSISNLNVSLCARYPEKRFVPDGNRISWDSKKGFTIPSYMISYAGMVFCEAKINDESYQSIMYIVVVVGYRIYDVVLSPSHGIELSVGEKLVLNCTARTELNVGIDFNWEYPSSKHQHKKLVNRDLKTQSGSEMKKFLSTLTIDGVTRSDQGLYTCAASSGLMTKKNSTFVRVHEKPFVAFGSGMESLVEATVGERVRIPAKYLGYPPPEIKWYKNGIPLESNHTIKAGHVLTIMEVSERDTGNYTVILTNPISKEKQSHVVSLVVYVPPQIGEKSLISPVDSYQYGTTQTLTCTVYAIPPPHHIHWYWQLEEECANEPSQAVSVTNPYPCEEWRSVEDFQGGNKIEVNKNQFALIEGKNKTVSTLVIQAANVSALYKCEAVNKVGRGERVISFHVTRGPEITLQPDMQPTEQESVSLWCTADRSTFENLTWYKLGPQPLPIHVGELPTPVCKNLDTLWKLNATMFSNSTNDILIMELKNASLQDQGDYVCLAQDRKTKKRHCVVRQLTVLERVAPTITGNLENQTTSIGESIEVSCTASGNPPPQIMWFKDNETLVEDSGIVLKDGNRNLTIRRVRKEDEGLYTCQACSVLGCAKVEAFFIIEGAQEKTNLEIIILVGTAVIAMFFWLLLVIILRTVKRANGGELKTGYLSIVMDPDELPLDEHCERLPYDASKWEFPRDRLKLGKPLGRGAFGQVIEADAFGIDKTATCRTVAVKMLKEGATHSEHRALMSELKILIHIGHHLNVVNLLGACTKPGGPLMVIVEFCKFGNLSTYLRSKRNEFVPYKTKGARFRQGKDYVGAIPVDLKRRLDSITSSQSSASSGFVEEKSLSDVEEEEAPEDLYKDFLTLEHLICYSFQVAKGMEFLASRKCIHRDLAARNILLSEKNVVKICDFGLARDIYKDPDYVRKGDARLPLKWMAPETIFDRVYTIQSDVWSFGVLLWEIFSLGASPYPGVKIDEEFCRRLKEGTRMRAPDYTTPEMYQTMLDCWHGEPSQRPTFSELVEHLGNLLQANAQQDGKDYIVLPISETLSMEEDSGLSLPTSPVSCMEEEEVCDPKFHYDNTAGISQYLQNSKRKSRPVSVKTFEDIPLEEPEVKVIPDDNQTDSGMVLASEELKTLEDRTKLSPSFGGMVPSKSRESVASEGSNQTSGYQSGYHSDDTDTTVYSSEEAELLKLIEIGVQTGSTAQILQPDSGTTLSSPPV

Row | Structure (SMILES) | pIC50 [1] | pIC50 [2] | pIC50 [3]
1 | Cc1cc(C)nc(NS(=O)(=O)c2ccc(Nc3nccc(N(C)c4ccc5c(C)n(C)nc5c4)n3)cc2)n1 [4-((4-((2,3-dimethyl-2H-indazole-6-yl)(methyl)amino)pyrimidin-2-yl)amino)-N-(4,6-dimethylpyrimidin-2-yl)benzenesulfonamide (P2e)] | 7.92 | 7.66 | –
2 | Cc1cc(NS(=O)(=O)c2ccc(Nc3nccc(N(C)c4ccc5c(C)n(C)nc5c4)n3)cc2)no1 [4-((4-((2,3-dimethyl-2H-indazole-6-yl)(methyl)amino)pyrimidin-2-yl)amino)-N-(5-methylisoxazol-3-yl)benzenesulfonamide (P2f)] | 6.19 | 6.49 | –
3 | Cc1c2ccc(N(C)c3ccnc(Nc4ccc(S(=O)(=O)Nc5ncccn5)cc4)n3)cc2nn1C [4-((4-((2,3-dimethyl-2H-indazole-6-yl)(methyl)amino)pyrimidin-2-yl)amino)-N-(pyrimidin-2-yl) benzenesulfonamide (P2c)] | 7.54 | 6.92 | –
4 | Cc1c2ccc(N(C)c3ccnc(Nc4ccc(S(=O)(=O)NC(=N)N)cc4)n3)cc2nn1C [N-carbamimidoyl-4-((4-((2,3-dimethyl-2H-indazole-6-yl)(methyl)amino)pyrimidin-2-yl)amino) benzenesulfonamide (P2g)] | 6.14 | 6.44 | 5.86

More lines, now with the values ahead:

Row | pIC50 [1] | pIC50 [2] | pIC50 [3] | Structure (SMILES)
5 | 7.60 | 7.21 | – | Cc1ccnc(NS(=O)(=O)c2ccc(Nc3nccc(N(C)c4ccc5c(C)n(C)nc5c4)n3)cc2)n1 [4-((4-((2,3-dimethyl-2H-indazole-6-yl)(methyl)amino)pyrimidin-2-yl)amino)-N-(4-methylpyrimidin-2-yl)benzenesulfonamide (P2d)]
6 | 6.92 | 6.44 | – | Cc1cc(C)nc(NS(=O)(=O)c2ccc(Nc3nccc(Nc4ccc5c(C)n(C)nc5c4)n3)cc2)n1 [4-((4-((2,3-dimethyl-2H-indazole-6-yl)amino)pyrimidin-2-yl)amino)-N-(4,6-dimethylpyrimidin-2-yl)benzenesulfonamide (P1e)]
7 | 6.80 | 6.55 | – | Cc1ccnc(NS(=O)(=O)c2ccc(Nc3nccc(Nc4ccc5c(C)n(C)nc5c4)n3)cc2)n1 [4-((4-((2,3-dimethyl-2H-indazole-6-yl)amino)pyrimidin-2-yl)amino)-N-(4-methylpyrimidin-2-yl) benzenesulfonamide (P1d)]
8 | 5.79 | 5.66 | – | Cc1cc(NS(=O)(=O)c2ccc(Nc3nccc(Nc4ccc5c(C)n(C)nc5c4)n3)cc2)no1 [4-((4-((2,3-dimethyl-2H-indazole-6-yl)amino)pyrimidin-2-yl)amino)-N-(5-methylisoxazol-3-yl) benzenesulfonamide (P1f)]
9 | 7.47 | 6.34 | – | Cc1c2ccc(Nc3ccnc(Nc4ccc(S(=O)(=O)Nc5ncccn5)cc4)n3)cc2nn1C [4-((4-((2,3-dimethyl-2H-indazole-6-yl)amino)pyrimidin-2-yl)amino)-N-(pyrimidin-2-yl) benzenesulfonamide (P1c)]
10 | 5.87 | 6.03 | – | Cc1c2ccc(Nc3ccnc(Nc4ccc(S(=O)(=O)NC(=N)N)cc4)n3)cc2nn1C [N-carbamimidoyl-4-((4-((2,3-dimethyl-2H-indazole-6-yl)amino)pyrimidin-2-yl)amino) benzenesulfonamide (P1g)]
